Data on 4 compounds can be found in US5885987A, “Phenylene derivatives” (Kowa Co., Ltd., priority 1996, dated 1999).

The subject of experiment [1] is histamine (H1). In words: Antihistaminic (anti-H1) action in vivo, Evans Blue transudation in back skin after intracutaneous histamine. Also noted: species or system male Hartley guinea pig. Conditions: orally 10 mg/kg, one hour before; histamine 0.3 μg/ml, 0.1 ml intracutaneously. On the procedure:
(§1) Antihistaminic Action and Anti-LTD4 Action (In vivo Tests)
(§2) After the hair on the back of a male Hartley guinea pig was cut off, a test compound was orally administered at 10 mg/kg. One hour later, 5% Evans Blue solution was intravenously administered at 1 ml/kg and immediately after that, a 0.3 μg/ml solution of histamine and a 0.5 μg/ml solution of leukotriene D4 were intracutaneously administered each in an amount of 0.1 ml to the back. Thirty minutes later, the guinea pig was sacrificed under exsanguination, the skin was cut off, and the transudated color was quantitated by extraction. To a control, 0.5% CMC (carboxylmethylcellulose) was orally administered and the subsequent procedures were repeated likewise. From the difference in the amount of the transudated color between the control and the group administered with the test compound, an inhibition rate was calculated.

Experiment [2] has as its system leukotriene D4. Nature of the experiment: Anti-LTD4 action in vivo, Evans Blue transudation in back skin after intracutaneous leukotriene D4. Also on record: species or system male Hartley guinea pig. Conditions: Cavia porcellus, po, 1 h; orally 10 mg/kg, one hour before; leukotriene D4 0.5 μg/ml, 0.1 ml intracutaneously; read-out: Anti-LTD4 action (%), inhibition rate. On the procedure:
as §1, §2

In experiment [3] the target is T1, LTD4 receptor (Cavia porcellus, UniProt Q2NNR5).
T1 construct: guinea pig pulmomembranous protein; from tissue; host or cells: guinea pig lung membranes
T1 sequence (Q2NNR5 1-340): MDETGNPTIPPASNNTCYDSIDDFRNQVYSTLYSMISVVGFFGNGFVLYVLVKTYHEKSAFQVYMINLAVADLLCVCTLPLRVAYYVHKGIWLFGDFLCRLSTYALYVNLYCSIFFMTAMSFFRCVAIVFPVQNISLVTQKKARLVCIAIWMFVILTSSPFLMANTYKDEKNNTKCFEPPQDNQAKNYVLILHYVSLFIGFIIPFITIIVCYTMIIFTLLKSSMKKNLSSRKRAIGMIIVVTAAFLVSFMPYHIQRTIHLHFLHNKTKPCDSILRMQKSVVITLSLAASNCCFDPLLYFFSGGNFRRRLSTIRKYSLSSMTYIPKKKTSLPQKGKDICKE
Nature of the experiment: LTD4 receptor binding inhibition test ([^3 H]leukotriene D4, guinea pig pulmomembranous protein). Conditions: for Kd: read-out: LTD4 receptor, dissociation constant KD. The essentials:
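Filtration binding with [3H]LTD4 on guinea pig lung membranes; reaction stopped with ice-cold Tris-HCl/NaCl buffer (10 mM/100 mM, pH 7.5), bound radioactivity by scintillation counting. Nonspecific binding defined with 2 μM leukotriene D4. IC50 from dose-response, converted to dissociation constant by Cheng-Prusoff.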

The target of experiment [4] is T2, H1 receptor (Cavia porcellus, UniProt P31389).
T2 construct: guinea pig cerebromembranous protein; from tissue; host or cells: guinea pig cerebral (brain) membranes
T2 sequence (P31389 whole entry): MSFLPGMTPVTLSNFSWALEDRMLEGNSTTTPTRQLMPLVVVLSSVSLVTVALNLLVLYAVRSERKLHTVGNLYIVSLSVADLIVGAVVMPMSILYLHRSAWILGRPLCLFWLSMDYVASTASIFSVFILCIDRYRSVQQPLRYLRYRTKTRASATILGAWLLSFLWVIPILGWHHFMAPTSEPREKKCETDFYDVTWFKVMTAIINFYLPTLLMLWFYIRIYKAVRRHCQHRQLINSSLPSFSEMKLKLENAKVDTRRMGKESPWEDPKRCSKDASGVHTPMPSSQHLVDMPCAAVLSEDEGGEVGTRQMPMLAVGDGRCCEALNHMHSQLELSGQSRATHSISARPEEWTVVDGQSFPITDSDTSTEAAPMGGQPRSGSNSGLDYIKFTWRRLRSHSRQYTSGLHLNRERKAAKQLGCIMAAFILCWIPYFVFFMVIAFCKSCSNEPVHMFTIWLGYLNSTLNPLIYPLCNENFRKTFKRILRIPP
In words: H1 receptor binding inhibition test ([^3 H]mepyramin, guinea pig cerebromembranous protein). The following applies: a: 100 μM; read-out: H1 receptor (%), inhibition rate. The essentials:
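[³H]Mepyramine binding to guinea pig brain membranes was stopped with ice-cold phosphate buffer and filtered, and bound radioactivity was measured by liquid scintillation. Nonspecific binding was defined with 10^-4 M R(-)dimethindene. IC50 came from concentration-response data and was converted to a dissociation constant by Cheng-Prusoff.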

Experiment [5] addresses T3, isolated guinea pig ileum (histamine) (Cavia porcellus, UniProt P31389).
T3 construct: An isolated guinea pig ileum was cut into about 2 cm lengths; from tissue; host or cells: isolated guinea pig ileum
Nature of the experiment: Antihistaminic action (in vitro), inhibition of histamine-induced contraction of isolated ileum. Format: cell-based. On the procedure:
(§3) Antihistaminic Action and Anti-LTD4 Action (In vitro Tests)
(§4) An isolated guinea pig ileum was cut into about 2 cm lengths. Each ileum piece was suspended in a 20-ml container filled with the Krebs buffer. An isotonic contractive response by histamine or leukotriene D4 was recorded on a recorder. The Krebs buffer was controlled at 37° C., through which a mixed gas (95%O2 -5%CO2) was bubbled. First, histamine or leukotriene D4 was added to an organ bath to measure its dose-response. After the ileum piece was washed several times with the buffer, a test compound (will be identified by its example number; this will apply likewise hereinafter) of a predetermined specific concentration was added. Subsequent to incubation for 30 minutes, the dose-response of histamine or leukotriene D4 was measured again. Incidentally, in Table 7, the values (%) indicate contraction inhibition rate at 10^-5 M, while the values in parentheses show pD'2 values in the case of antihistaminic action and IC50 values in the case of anti-LTD4 action.

Experiment [6] deals with isolated guinea pig ileum (leukotriene D4). In words: Anti-LTD4 action (in vitro), inhibition of leukotriene D4-induced contraction of isolated ileum. The format is cell-based. The following applies: Cavia porcellus. On the procedure: as §3, §4
Experiment [7] deals with cortical edema. The following applies: intravenous administration after occurrence of ischemia; cited from earlier work.

T3 sequence (P31389 whole entry): as above

As for `CC1(C)C(=O)Nc2cc(OCc3cccc(OCc4ccc5ccccc5n4)c3)ccc21` [Example 15], the “Anti-H1 action (%), inhibition rate” value in experiment [1] was determined as 17%. In addition, the inhibition in vivo at 10 mg/kg in experiment [2] is 37%. Moreover, in experiment [3] (b: 10 μM, read-out: LTD4 receptor (%), inhibition rate), the inhibition at 10 µM was 37%. Besides, the inhibition at 100 µM in experiment [4] worked out at 36%.
As for `CC1(C)C(=O)Nc2c(OCc3cccc(OCc4ccc5ccccc5n4)c3)cccc21` [Example 17, 3,3-Dimethyl-7-[3-(2-quinolinylmethoxy)benzyloxy]-2,3-dihydro-1H-indol-2-one], the “Anti-H1 action (%), inhibition rate” value in experiment [1] is 19%. The inhibition at 10 µM in experiment [5] (10^-5 M, 30 minutes incubation, 37° C., read-out: Antihistaminic (%), contraction inhibition rate) was 100%; in experiment [6] (0.5 h, 10^-5 M, 30 minutes incubation, 37° C., read-out: Anti-LTD4 action (%), contraction inhibition rate), 96%. Besides, in experiment [5] (isolated guinea pig ileum, histamine, 30 min), the “pD'2 (antihistaminic action)” value amounted to 5.35. Moreover, the inhibition in vivo at 10 mg/kg in experiment [2] was found to be 21%. Further, the Kd in experiment [3] is 202 nM. Further, in experiment [4], the inhibition at 100 µM was 40%. Also, the IC50 in experiment [6] (isolated guinea pig ileum, leukotriene D4) worked out at 1500 nM.
With `CC1(C)C(=O)Nc2c(OCc3ccc(OCc4ccc5ccccc5n4)cc3)cccc21` [Example 30, 3,3-Dimethyl-7-[4-(2-quinolinylmethoxy)benzyloxy]-2,3-dihydro-1H-indol-2-one], in experiment [1], the “Anti-H1 action (%), inhibition rate” value came out at 40%. The inhibition in vivo at 10 mg/kg in experiment [2] amounted to 44%. Also, the Kd in experiment [3] came to 200 nM. The inhibition at 100 µM in experiment [4] came to 32%.
For `CCCc1c(OCC(O)COc2ccc3c(=O)cc(C(=O)O)oc3c2CCC)ccc(C(C)=O)c1O` (centres unmarked) [FPL55712], the “increase and aggravation of cortical edema” value in experiment [7] is given as “significantly inhibited”.

By inhibition is commonly meant the change of the read-out against control, counted positive when it falls. As a reminder, the Kd is a measure of binding affinity in units of concentration. The IC50 is the concentration that inhibits the measured activity by half. A lower IC50 goes with greater potency in that assay.
